Reference: US20230050846A1, “TREATMENT OF HEPATIC AND CARDIOVASCULAR DISORDERS” (LIFESEARCH, priority 2019, published 2023)
Peptide text beside a SMILES is read from it. * marks the point of attachment. Palmitoyl = CCCCCCCCCCCCCCCC(=O)*

Columns and labels:
[1] = test system: wild-type C57B/L6J mice; experiment: Femoral artery blood flow in conscious mice; assay type: in vivo, mouse; conditions: data not shown
Source text: According to the protocol disclosed in [5], the peptide of formula (I) increased femoral artery blood flow in conscious wild-type C57B/L6J mice in a process that strictly depend on endothelial NO production (data not shown).

[2] = test system: C57B/L6J mice fed CDAHFD; experiment: CDAHFD diet-induced NASH associated hepatic fibrosis mouse model; assay type: in vivo; conditions: sc infusion two weeks, 5 mg/kg BW/day
Protocol: (§1) Wild-type C57B/L6J male mice were purchased from Janvier Labs (Le Genest Saint Isle, France). Mice were caged in animal rooms under specific pathogen free conditions at the animal facility of Rangueil (Anexplo platform, US006, Toulouse, France) with a light/dark schedule of 12 h/12 h. At the initiation of the dietary intervention, all animals were 8 weeks old and were fed ad libitum with a normal chow diet (#V1535 R/M-H, Ssniff, Germany). All animal experimental procedures were conducted in accordance with institutional guidelines on animal experimentation approved by the local ethical committee of animal care and are conformed to the guidelines from Directive 2010/63/EU of the European Parliament on the protection of animals used for scientific purposes or the NIH guideline.
8 weeks old mice were fed for 6 week a choline-deficient, L-amino acid-defined, high-fat diet (CDAHFD #A06071302, Research Diet, USA) consisting of 60 kcal % fat and 0.1% methionine by weight. For the 2 last weeks of the 6-week period, a group of mice were implanted with an osmotic pump containing the peptide of formula (I). Briefly, 200 μL osmotic pump were filled with 10 mg/mL of the peptide of formula (I) in PBS and were implanted subcutaneously into the mice according to the manufacturer's instructions (Alzet®, model pump #2002), to insure the peptide of formula (I) release at an estimated rate of 0.5 μL/h, which corresponds to an estimated amount of delivery of 5 mg of the peptide of formula (I) per kilogram of body weight per day (5 mg/kg BW/day). The control group was composed of mice that underwent the same chirurgical procedure used for osmotic pump implantation (sham-operated mice).
Liver histology. […] Fibrosis was assessed by Sirius Red staining. […]
Hepatic hydroxyproline was determined by hydrolizing 80-140 mg liver in a 6N HCl solution, overnight, at 110 degrees Celsius. […] Absorbance was measured at 550 nm and the results are expressed as micrograms of hepatic hydroxyproline per mg tissue.

[3] = test system: C57B/L6J mice fed western-diet; experiment: Western diet-induced hepatic steatosis mouse model; assay type: in vivo; conditions: ip daily 1 mg/kg/day
Protocol: as §1
8 weeks old mice were fed fed western-diet for 4-weeks (Envigo #TD.88137 containing 0.2% cholesterol, 42% kcal from fat, 34% sucrose by weight). For the 2 last weeks of the 4-week period, mice were daily intraperitoneally administrated at 1 mg/kg/day with the peptide of formula (I) or PBS (control group). Following the treatment period, mice were fasted overnight, anesthetized by intra-peritoneal injection of ketamine and xylazine hydrochloride then killed by exsanguination. Body weight, liver triglyceride content, plasma lipids and transaminases were determined at sacrifice.
100 mg of liver tissue were homogenized in 900 μL of phosphate buffer pH 7.4 until complete tissue lysis. Lipids were extracted by mixing 125 μL of lysates with 1 mL of CHCl3:MeOH (2:1). After centrifugation, the chloroform phase was evaporated under nitrogen flux, and the dried residue was solubilized in 200 μL of isopropanol. Triglycerides were measured using commercial kits based on GPO-PAP detection method (Biolabo SA, Maizy, France). Results were expressed as mg of triglycerides/g liver.
Triglycerides and cholesterol levels were determined using commercial colorimetric kits (Biolabo SA, Maizy, France) based on CHOD-PAP and GPO-PAP detection methods, coupling enzymatic reaction and spectrophotometric detection of reaction end products. Alanine-aminotransferase (ALT) and aspartate-aminotransferase (AST) levels were determined using a COBAS-MIRA+ biochemical analyser (Anexplo facility, Toulouse, France).
Blood glucose levels were measured by tail vein sampling with portable glucometer (Accu-check, Roche) 30 min before oral glucose load and at 0, 15, 30, 45, 60, 90 and 120 min after oral glucose load. Plasma insulin concentration was determined 30 min before and 15 min after glucose loading in 5 μL of plasma using an ELISA kit (Mercodia, Uppsala, Sweden) according to the manufacturer's instructions.

Compound	femoral artery blood flow [1]	collagen deposition (Sirius Red staining) ([2]; p<0.01 vs sham-operated mice)	decrease in the concentration of hydroxyproline content per milligram of liver ([2]; p<0.05 vs sham-operated mice)	CDAHFD diet-induced increase of hepatic fibrosis ([2]; vs sham-operated mice)	oral glucose tolerance (OGTT) ([3]; OGTT 10 days after initiation)	basal insulin level ([3]; p<0.05 vs PBS)	plasma HDL-cholesterol (HDL-C) level ([3]; two weeks)	plasma triglycerides level ([3]; two weeks)	liver/body weight ratio ([3]; two weeks, p<0.01 vs PBS)	hepatic triglyceride concentration ([3]; two weeks, p<0.05 vs PBS)	plasma ALT level ([3]; two weeks, p<0.05 vs PBS)	plasma level of total cholesterol ([3]; two weeks, p<0.05 vs PBS)	hepatic steatosis ([3]; two weeks, vs PBS)
Ac-RGAGSIREAGGAFGKREQAEEERYFRAQSRE-NH2 [peptide of formula (I), CH3CO-[SEQ ID NO: 1]-NH2]	increased	less collagen deposition	more than 35%	significantly attenuated									
CCCCCCCCCCCCCCCC(=O)NCCCC[C@H](NC(=O)[C@H](CCC(=O)O)NC(=O)[C@H](CCCNC(=N)N)NC(=O)[C@H](CO)NC(=O)[C@H](CCC(N)=O)NC(=O)[C@H](C)NC(=O)[C@H](CCCNC(=N)N)NC(=O)[C@H](Cc1ccccc1)NC(=O)[C@H](Cc1ccc(O)cc1)NC(=O)[C@H](CCCNC(=N)N)NC(=O)[C@H](CCC(=O)O)NC(=O)[C@H](CCC(=O)O)NC(=O)[C@H](CCC(=O)O)NC(=O)[C@H](C)NC(=O)[C@H](CCC(N)=O)NC(=O)[C@H](CCC(=O)O)NC(=O)[C@H](CCCNC(=N)N)NC(=O)[C@H](CCCCN)NC(=O)CNC(=O)[C@H](Cc1ccccc1)NC(=O)[C@H](C)NC(=O)CNC(=O)CNC(=O)[C@H](C)NC(=O)[C@H](CCC(=O)O)NC(=O)[C@H](CCCNC(=N)N)NC(=O)[C@@H](NC(=O)[C@H](CO)NC(=O)CNC(=O)[C@H](C)NC(=O)CNC(=O)[C@H](CCCNC(=N)N)NC(C)=O)[C@@H](C)CC)C(N)=O [peptide of formula (II), CH3CO-[SEQ ID NO: 1]-K-[palmitoyl]-NH2] (Ac-RGAGSIREAGGAFGKREQAEEERYFRAQSREK(Palmitoyl)-NH2)					improved	decreased	no effect	no effect	decrease	reduction	significantly reduced	significantly decrease	significantly reduced
